Measurements: ChEMBL document CHEMBL1201862, “PubChem BioAssay data set” (2004)
Counter-ions that a name gives are not always drawn.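 Each compound was tested at five concentrations against cells in 96-well plates for 48 hours. Here, GI50 denotes the concentration required for 50% inhibition of growth.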 Active and inactive are the calls of the source. No stated cut-off is given here; in the data, active = GI50 up to about 1.1 µM and inactive = higher.

Experiments:
Test in all cases: NCI tumour cell line growth inhibition, 48 h
A549 = test system: A549
U-251 = test system: U-251
CCRF-CEM = test system: CCRF-CEM
TK-10 = test system: TK-10
K562 = test system: K562
OVCAR-8 = test system: OVCAR-8
SR = test system: SR
MDA-N = test system: MDA-N
HT-29 = test system: HT-29
SNB-19 = test system: SNB-19
NCI-H460 = test system: NCI-H460
CAKI-1 = test system: CAKI-1
UACC-257 = test system: UACC-257
OVCAR-4 = test system: OVCAR-4
HCC 2998 = test system: HCC 2998
UACC-62 = test system: UACC-62
SF-295 = test system: SF-295
786-0 = test system: 786-0
DU-145 = test system: DU-145
MCF7 = test system: MCF7

| SMILES | GI50 (A549) | GI50 (U-251) | GI50 (CCRF-CEM) | GI50 (TK-10) | GI50 (K562) | GI50 (OVCAR-8) | GI50 (SR) | GI50 (MDA-N) | GI50 (HT-29) | GI50 (SNB-19) | GI50 (NCI-H460) | GI50 (CAKI-1) | GI50 (UACC-257) | GI50 (OVCAR-4) | GI50 (HCC 2998) | GI50 (UACC-62) | GI50 (SF-295) | GI50 (786-0) | GI50 (DU-145) | GI50 (MCF7) |
| --- | --- | --- | --- | --- | --- | --- | --- | --- | --- | --- | --- | --- | --- | --- | --- | --- | --- | --- | --- | --- |
| O=P1(Cc2ccccc2)N(Cc2ccccc2)[C@@H]2CCCC[C@H]2N1Cc1ccccc1 | 6.17 µM (inactive) | 11.1 µM (inactive) | 4.76 µM (inactive) | 13.5 µM (inactive) | 5 µM (inactive) | 10 µM (inactive) | 2.69 µM (inactive) | 6.82 µM (inactive) | 5.32 µM (inactive) | 10.6 µM (inactive) | 8.07 µM (inactive) | 10.4 µM (inactive) | 6.41 µM (inactive) | 3.01 µM (inactive) | 8.89 µM (inactive) | 7.74 µM (inactive) | 6.59 µM (inactive) | 13 µM (inactive) | 12.6 µM (inactive) | 6.89 µM (inactive) |
| CO/C(=N\N=C\c1cccc(Cl)c1)c1ccncc1 | > 10 µM (inactive) | > 10 µM (inactive) | > 10 µM (inactive) | > 10 µM (inactive) | > 10 µM (inactive) | > 10 µM (inactive) | > 10 µM (inactive) | > 10 µM (inactive) | > 10 µM (inactive) | > 10 µM (inactive) | > 10 µM (inactive) | > 10 µM (inactive) | > 10 µM (inactive) | > 10 µM (inactive) | > 10 µM (inactive) |  | > 10 µM (inactive) | > 10 µM (inactive) | > 10 µM (inactive) | > 10 µM (inactive) |
| CCOP(=O)(OCC)/C(C#N)=C/c1cccn1C | > 100 µM (inactive) | > 100 µM (inactive) | 25.9 µM (inactive) | > 100 µM (inactive) |  | > 100 µM (inactive) | > 100 µM (inactive) | > 100 µM (inactive) | > 100 µM (inactive) | > 100 µM (inactive) | > 100 µM (inactive) | > 100 µM (inactive) | > 100 µM (inactive) | > 100 µM (inactive) | > 100 µM (inactive) | > 100 µM (inactive) | > 100 µM (inactive) | > 100 µM (inactive) | > 100 µM (inactive) | > 100 µM (inactive) |
| O=C1c2ccccc2C(=O)N1CC1S(=O)(=O)OCCOS1(=O)=O | > 100 µM (inactive) | > 100 µM (inactive) | > 100 µM (inactive) | > 100 µM (inactive) | > 100 µM (inactive) | > 100 µM (inactive) | 44.1 µM (inactive) | > 100 µM (inactive) | > 100 µM (inactive) | > 100 µM (inactive) | > 100 µM (inactive) | > 100 µM (inactive) | > 100 µM (inactive) | > 100 µM (inactive) | > 100 µM (inactive) | > 100 µM (inactive) | > 100 µM (inactive) | > 100 µM (inactive) | > 100 µM (inactive) | > 100 µM (inactive) |
| O=C1ON=C2C3CC4CC12CC1(C3)C(=O)ON=C41 | > 100 µM (inactive) | > 100 µM (inactive) | > 100 µM (inactive) |  | > 100 µM (inactive) | > 100 µM (inactive) | > 100 µM (inactive) | > 100 µM (inactive) | > 100 µM (inactive) | > 100 µM (inactive) | > 100 µM (inactive) | > 100 µM (inactive) | > 100 µM (inactive) | > 100 µM (inactive) | > 100 µM (inactive) | > 100 µM (inactive) | > 100 µM (inactive) | > 100 µM (inactive) | > 100 µM (inactive) | > 100 µM (inactive) |
| Nn1c(Sc2nc3ccccc3c(=O)n2N)nc2ccccc2c1=O | 14.2 µM (inactive) | 7.03 µM (inactive) | 0.94 µM (active) | 21.2 µM (inactive) | 2.12 µM (inactive) | 2.77 µM (inactive) | 2.02 µM (inactive) | 4.04 µM (inactive) | 3.4 µM (inactive) | 6.92 µM (inactive) | 19.5 µM (inactive) | 6.37 µM (inactive) | 16.5 µM (inactive) | 26.7 µM (inactive) | 15.2 µM (inactive) | 11.5 µM (inactive) | 18.2 µM (inactive) | 4.72 µM (inactive) | 20.2 µM (inactive) | 4.1 µM (inactive) |
| N#C/C(=C\c1ccccc1)C(=O)Nc1nnc(-c2ccccc2)o1 | 34.1 µM (inactive) | 37.4 µM (inactive) | 17.9 µM (inactive) | > 100 µM (inactive) | 26.4 µM (inactive) | 36.1 µM (inactive) | 25.6 µM (inactive) | 35.4 µM (inactive) | 41.3 µM (inactive) |  |  | 28.1 µM (inactive) | 25.7 µM (inactive) | 32.4 µM (inactive) | 63.1 µM (inactive) | 22.3 µM (inactive) | 13.2 µM (inactive) | 53 µM (inactive) | 50.4 µM (inactive) | 50.9 µM (inactive) |
| Cc1cc(S(=O)(=O)Nc2nc(-c3ccccn3)n[nH]2)c(S)cc1Cl | 12.9 µM (inactive) | 13.3 µM (inactive) |  | 10 µM (inactive) |  | 11 µM (inactive) | 24.3 µM (inactive) | 42.2 µM (inactive) | 15.3 µM (inactive) | 16.9 µM (inactive) | 10.6 µM (inactive) | 5.21 µM (inactive) | 30.9 µM (inactive) | 18.6 µM (inactive) | 15 µM (inactive) | 7.96 µM (inactive) |  | 12.1 µM (inactive) | 19.2 µM (inactive) | 31.3 µM (inactive) |
| O=C(Nc1nc(C23CC4CC(CC(C4)C2)C3)cs1)c1cc2cc([N+](=O)[O-])ccc2oc1=O | 70.5 µM (inactive) | 43 µM (inactive) | 55.6 µM (inactive) | > 100 µM (inactive) | > 100 µM (inactive) | > 100 µM (inactive) | 68.4 µM (inactive) | > 100 µM (inactive) | 58.1 µM (inactive) | 72.1 µM (inactive) | 52.6 µM (inactive) | > 100 µM (inactive) | > 100 µM (inactive) | 17.8 µM (inactive) | > 100 µM (inactive) |  | 38.1 µM (inactive) | 17.7 µM (inactive) | 86.7 µM (inactive) | 56.8 µM (inactive) |
| CSc1nc(SC)c2c(C)cn(COCCOC(=O)c3ccccc3)c2n1 | > 100 µM (inactive) | > 100 µM (inactive) | 64.1 µM (inactive) | > 100 µM (inactive) |  | > 100 µM (inactive) | > 100 µM (inactive) | > 100 µM (inactive) | > 100 µM (inactive) | > 100 µM (inactive) | 88.5 µM (inactive) | > 100 µM (inactive) |  | > 100 µM (inactive) | > 100 µM (inactive) | > 100 µM (inactive) | > 100 µM (inactive) | > 100 µM (inactive) | 69.8 µM (inactive) | 76.4 µM (inactive) |
| CN(C)CCOC(=O)COc1ccc(Cl)cc1 [CENTROPHENOXINE HYDROCHLORIDE] | > 100 µM (inactive) | > 100 µM (inactive) | > 100 µM (inactive) |  | > 100 µM (inactive) | > 100 µM (inactive) | > 100 µM (inactive) | > 100 µM (inactive) | > 100 µM (inactive) | > 100 µM (inactive) | > 100 µM (inactive) | > 100 µM (inactive) | > 100 µM (inactive) | > 100 µM (inactive) | > 100 µM (inactive) | > 100 µM (inactive) | > 100 µM (inactive) | > 100 µM (inactive) | > 100 µM (inactive) | 38.8 µM (inactive) |
